Test results from ChEMBL document CHEMBL1125753, “Absolute structure-cytotoxic activity relationships of steganacin congeners and analogues” (1991).
Values after ≈ are worked out from the molar mass of the structure shown.

Columns and labels:
[1] = system: KB; experiment: In vitro effective dose to inhibit KB cell growth from a human epidermoid carcinoma.; assay type: functional; conditions: for EC50: Homo sapiens, KB, read-out: ED50 (the source's name)
[2] = system: Tetrahymena pyriformis; experiment: In vitro minimum inhibition concentration to inhibit the regeneration of cilia in Tetrahymena pyriformis W.; assay type: functional
[3] = Tetrahymena pyriformis, read-out: MIC

EC50 [1] | Compound | MIC [2, 3] | ED50 [1] | also measured
– | COc1cc(CC2COCC2Cc2ccc3c(c2)OCO3)cc(OC)c1OC (stereo in doubt; (+)) [CISBURSERAN] | – | – | MIC [2]: 20 µg/mL (≈ 51.8 µM)
1.5 µg/mL (≈ 3.09 µM) | COc1cc2c(c(OC)c1OC)-c1cc3c(cc1[C@H](OCCN(C)C)[C@H]1COC(=O)[C@@H]1C2)OCO3 | – | – | –
– | COc1cc2c(c(OC)c1OC)-c1cc3c(cc1C[C@H]1COC(=O)[C@H]1C2)OCO3 (stereo in doubt; (+)) [PICROSTEGANE] | > 20 µg/mL | 32 µg/mL (≈ 80.3 µM) | –
– | COc1cc2c(c(OC)c1OC)-c1cc3c(cc1C[C@@H]1COC(=O)[C@@H]1C2)OCO3 (stereo in doubt; (+)) | – | 4.1 µg/mL (≈ 10.3 µM) | MIC [2]: >20 µg/mL
> 100 µg/mL | COc1cc2c(c(OC)c1OC)-c1cc3c(cc1[C@H](O[C@@H]1O[C@@H](CO)[C@@H](O)[C@H](O)[C@@H]1O)[C@H]1COC(=O)[C@@H]1C2)OCO3 | – | – | –
– | COc1cc(C2c3cc4c(cc3CC3COC(=O)[C@@H]32)OCO4)cc(OC)c1OC (stereo in doubt) | > 20 µg/mL | 1.75 µg/mL (≈ 4.39 µM) | –
– | COc1cc2cc(c1Cl)N(C)C(=O)C[C@H](OC(=O)C(C)C)[C@]1(C)O[C@H]1[C@H](C)[C@@H]1C[C@@](O)(NC(=O)O1)[C@H](OC)/C=C/C=C(\C)C2 | < 0.5 µg/mL | – | –
– | COc1cc(CC2COCC2Cc2ccc3c(c2)OCO3)cc(OC)c1OC (stereo in doubt; (-)) [CISBURSERAN] | > 20 µg/mL | – | –
15 µg/mL (≈ 30.8 µM) | COc1cc2c(c(OC)c1OC)-c1cc3c(cc1C[C@H](COC(C)=O)[C@@H](COC(C)=O)C2)OCO3 (racemic) | – | – | –
– | COc1cc2c(c(OC)c1OC)-c1cc3c(cc1CC1COC(=O)C1C2)OCO3 (racemic; form 1) | – | 1.13 µg/mL (≈ 2.84 µM) | –
– | COc1cc2c(c(OC)c1OC)-c1cc3c(cc1[C@@H](OC(C)=O)[C@H]1COC(=O)[C@@H]1C2)OCO3 (stereo in doubt; form 3) | – | 16.6 µg/mL (≈ 36.4 µM) | –
> 100 µg/mL | COc1cc2c(c(OC)c1OC)-c1cc3c(cc1[C@H](O[C@@H]1O[C@H]4CO[C@@H](c5cccs5)O[C@H]4[C@H](O)[C@@H]1O)[C@H]1COC(=O)[C@@H]1C2)OCO3 | – | – | –
– | COc1cc2c(c(OC)c1OC)-c1cc3c(cc1CC1COC(=O)C1C2)OCO3 (racemic; form 2) | > 20 µg/mL | <0.3 µg/mL | –
– | COc1cc2c(c(OC)c1OC)-c1cc3c(cc1[C@@H](OC(C)=O)[C@H]1COC(=O)[C@@H]1C2)OCO3 (stereo in doubt; form 2) | > 20 µg/mL | 61 µg/mL (≈ 134 µM) | –
– | COc1cc2c(c(OC)c1OC)-c1cc3c(cc1C[C@H]1COC(=O)[C@@H]1C2)OCO3 (stereo in doubt; form 1) [STEGANE] | – | 86 µg/mL (≈ 216 µM) | –
0.53 µg/mL (≈ 1.28 µM) | COc1cc2c(c(OC)c1OC)-c1cc3c(cc1[C@H](O)[C@H]1COC(=O)[C@@H]1C2)OCO3 | – | – | –
16 µg/mL (≈ 38.6 µM) | COc1cc2c(c(OC)c1OC)-c1cc3c(cc1[C@H](O)[C@H]1COC(=O)[C@H]1C2)OCO3 | – | – | –

EC50 [1] | Compound | MIC [2, 3] | ED50 [1] | also measured
– | COc1cc2c(c(OC)c1OC)-c1cc3c(cc1C[C@H]1COC(=O)[C@H]1C2)OCO3 (stereo in doubt; (-)) [PICROSTEGANE] | – | 8.8 µg/mL (≈ 22.1 µM) | –
< 0.3 µg/mL | COc1cc2c(c(OC)c1OC)-c1ccc(OC)c(=O)cc1[C@@H](NC(C)=O)CC2 [COLCHICINE] | > 20 µg/mL | – | –
– | COc1cc(C[C@@H]2C(=O)OC[C@H]2Cc2ccc3c(c2)OCO3)cc(OC)c1OC (stereo in doubt; (-)) | > 20 µg/mL | – | –
– | COc1cc2c(c(OC)c1OC)-c1cc3c(cc1CC1COC(=O)C1C2)OCO3 (racemic; form 3) | – | 1.33 µg/mL (≈ 3.34 µM) | –
– | COc1cc2c(c(OC)c1OC)-c1cc3c(cc1C[C@H]1COC(=O)[C@@H]1C2)OCO3 (stereo in doubt; form 3) [STEGANE] | – | 94 µg/mL (≈ 236 µM) | –
– | COc1cc(C2c3cc4c(cc3CC3COC(=O)[C@@H]32)OCO4)cc(OC)c1OC (mixture of isomers) | – | <0.3 µg/mL | –
– | COc1cc2c(c(OC)c1OC)-c1cc3c(cc1[C@@H](OC(C)=O)[C@H]1COC(=O)[C@@H]1C2)OCO3 (stereo in doubt; form 1) | – | 1.75 µg/mL (≈ 3.83 µM) | –
– | COc1cc2c(c(OC)c1OC)-c1cc3c(cc1C[C@H]1COC(=O)[C@@H]1C2)OCO3 (stereo in doubt; form 2) [STEGANE] | > 20 µg/mL | 0.49 µg/mL (≈ 1.23 µM) | –
– | COc1cc2c(c(OC)c1OC)-c1cc3c(cc1C[C@H]1COC(=O)[C@@H]1C2)OCO3 (stereo in doubt; form 4) [STEGANE] | – | 0.47 µg/mL (≈ 1.18 µM) | –
– | COc1cc2c(c(OC)c1OC)-c1cc3c(cc1C[C@H]1COC(=O)[C@@H]1C2)OCO3 (racemic) [STEGANE] | – | 0.94 µg/mL (≈ 2.36 µM) | –
75 µg/mL (≈ 186 µM) | COc1cc2c(c(OC)c1OC)-c1cc3c(cc1C[C@H](CO)[C@@H](CO)C2)OCO3 (racemic) | – | – | –
3.9 µg/mL (≈ 6.53 µM) | COc1cc2c(c(OC)c1OC)-c1cc3c(cc1[C@H](OC(=O)c1ccc(Br)cc1)[C@H]1COC(=O)[C@@H]1C2)OCO3 | – | – | –
56 µg/mL (≈ 75.2 µM) | COc1cc2c(c(OC)c1OC)-c1cc3c(cc1[C@H](O[C@@H]1O[C@@H](COC(C)=O)[C@@H](OC(C)=O)[C@H](OC(C)=O)[C@@H]1OC(C)=O)[C@H]1COC(=O)[C@@H]1C2)OCO3 | – | – | –
– | COc1cc2c(c(OC)c1OC)-c1cc3c(cc1C[C@H]1COC(=O)[C@H]1C2)OCO3 (racemic) [PICROSTEGANE] | – | 28 µg/mL (≈ 70.3 µM) | –
– | COc1cc2c(c(OC)c1OC)-c1cc3c(cc1C[C@@H]1COC(=O)[C@@H]1C2)OCO3 (stereo in doubt; (-)) | 20 µg/mL (≈ 50.2 µM) | <0.3 µg/mL | –
6.2 µg/mL (≈ 15 µM) | COc1cc2c(c(OC)c1OC)-c1cc3c(cc1C(=O)[C@H]1COC(=O)[C@@H]1C2)OCO3 | – | – | –
5 µg/mL (≈ 12.1 µM) | COc1cc2c(c(OC)c1OC)-c1cc3c(cc1[C@@H](O)[C@H]1COC(=O)[C@@H]1C2)OCO3 | – | – | –

Compound | EC50 [1] | MIC [2, 3] | ED50 [1] | also measured
COc1cc2c(c(OC)c1OC)-c1cc3c(cc1[C@H](OC(C)=O)[C@H]1COC(=O)[C@@H]1C2)OCO3 [(-)-STEGANACIN] | < 0.3 µg/mL | > 20 µg/mL | – | –
COc1cc2c(c(OC)c1OC)-c1cc3c(cc1[C@@H](OC(C)=O)C1COC(=O)[C@H]1C2)OCO3 (mixture of isomers) [STEGANACIN] | < 0.3 µg/mL | > 20 µg/mL | – | –
COc1cc2c(c(OC)c1OC)-c1cc3c(cc1C(OC(C)=O)[C@H]1COC(=O)[C@@H]1C2)OCO3 (mixture of isomers) | 15.7 µg/mL | > 20 µg/mL | – | –
COc1cc(C[C@H]2C(=O)OCC2Cc2ccc3c(c2)OCO3)cc(OC)c1OC (mixture of isomers) | 16.8 µg/mL | > 20 µg/mL | – | –
COc1cc([C@@H]2c3cc4c(cc3[C@H](O)[C@H]3COC(=O)[C@H]23)OCO4)cc(OC)c1OC [PODOFILOX] | < 0.3 µg/mL | > 20 µg/mL | – | –
COc1cc(C[C@@H]2C(=O)OC[C@H]2Cc2ccc3c(c2)OCO3)cc(OC)c1OC (stereo in doubt; (+)) | 5.2 µg/mL (≈ 13 µM) | – | – | MIC [2]: <20 µg/mL
COc1cc2c(c(OC)c1OC)-c1cc3c(cc1[C@H](C#N)[C@H]1COC(=O)[C@@H]1C2)OCO3 | 1.52 µg/mL (≈ 3.59 µM) | – | – | –
